Assay results from patent US6869933B2, “HIV-specific CTL inducing peptides and medicaments for preventing or treating AIDS comprising the peptides” (Ajinomoto Co., Inc., priority 1999, dated 2005).
Marks after values point to notes of the source that are not given here.

Legend:
[1] = system: HLA-A*1101 positive Tm EBV transformed cells pulsed with the peptide; experiment: Induction of specific CTL after a single stimulation with the peptides in PBMC from HIV-subtype E-seropositive patients carrying HLA-A11; settings: for patients from whom the specific CTL could be induced: HIV-1 subtype E infected patients carrying HLA-A11
[2] = system: HLA-A*1101 positive Tm EBV transformed cells pulsed with the peptide; experiment: Induction of specific CTL by a single stimulation with the peptides in PBL from HIV-seropositive patients carrying HLA-A11 (51Cr release CTL assay); settings: for patients in whom peptide-specific CTL activity was induced: six HIV-1 seropositive patients carrying HLA-A*1101
[3] = system: HLA-A*1101 positive Tm EBV transformed cells pulsed with the peptide; experiment: Induction of specific CTL after a single stimulation with the peptides in PBMC from HIV-subtype B-seropositive patients carrying HLA-A11
[4] = system: C1R-A*1101 cells infected with vaccinia virus expressing HIV-1 Pol protein or Env protein; format: cell-based, human
[5] = patient TT-005, effector:target 40:1, peptide 1 μM
[6] = patient TT-007, effector:target 40:1, peptide 1 μM
[7] = patient TT-008, effector:target 40:1, peptide 1 μM
[8] = patient TT-009, effector:target 40:1, peptide 1 μM
[9] = patient TU-002, effector:target 40:1, peptide 1 μM
[10] = patient TU-003, effector:target 40:1, peptide 1 μM
[11] = patient TU-007, effector:target 40:1, peptide 1 μM
[12] = patient five, effector:target 5:1, peptide 1 μM
[13] = patient five, effector:target 40:1, peptide 1 μM
[14] = patient four, effector:target 5:1, peptide 1 μM
[15] = patient four, effector:target 40:1, peptide 1 μM
[16] = patient one, effector:target 5:1, peptide 1 μM
[17] = patient one, effector:target 40:1, peptide 1 μM
[18] = patient six, effector:target 5:1, peptide 1 μM
[19] = patient six, effector:target 40:1, peptide 1 μM
[20] = patient three, effector:target 5:1, peptide 1 μM
[21] = patient three, effector:target 40:1, peptide 1 μM
[22] = patient two, effector:target 5:1, peptide 1 μM
[23] = patient two, effector:target 40:1, peptide 1 μM
[24] = patient KI-005, effector:target 40:1, peptide 1 μM
[25] = patient KI-015, effector:target 40:1, peptide 1 μM
[26] = patient KI-030, effector:target 40:1, peptide 1 μM
[27] = patient KI-035, effector:target 40:1, peptide 1 μM
[28] = patient KI-036, effector:target 40:1, peptide 1 μM

## AFDLSFFLK (Human immunodeficiency virus type 1) [Nef 84-9-2F6F]
[1]
  patients from whom the specific CTL could be induced: six of seven
[1]; [5]
  relative cell lysis (%): −1.3%
[1]; [6]
  relative cell lysis (%): 24.6%
[1]; [7]
  relative cell lysis (%): 75.5%
[1]; [8]
  relative cell lysis (%): 76.5%
[1]; [9]
  relative cell lysis (%): 15.4%
[1]; [10]
  relative cell lysis (%): 41.2%
[1]; [11]
  relative cell lysis (%): 64.2%

## AIFQSSMTK (Human immunodeficiency virus type 1) [Pol313-321]
[2]; [12]
  relative cell lysis (%): −3.7%
[2]; [13]
  relative cell lysis (%): 2.8%
[2]; [14]
  relative cell lysis (%): 26.8%
[2]; [15]
  relative cell lysis (%): 53.5%
[2]; [16]
  relative cell lysis (%): 3.7%
[2]; [17]
  relative cell lysis (%): 13.6%
[2]; [18]
  relative cell lysis (%): 1.1%
[2]; [19]
  relative cell lysis (%): 0.7%
[2]; [20]
  relative cell lysis (%): 2.3%
[2]; [21]
  relative cell lysis (%): −2.4%
[2]; [22]
  relative cell lysis (%): 8.2%
[2]; [23]
  relative cell lysis (%): 31.1%
[2]
  patients in whom peptide-specific CTL activity was induced: three patients

## QIIEELIKK (Human immunodeficiency virus type 1) [Pol 675-9-5E]
[1]
  patients from whom the specific CTL could be induced: five of seven
[1]; [5]
  relative cell lysis (%): 3.4* %
[1]; [6]
  relative cell lysis (%): 55.1%
[1]; [7]
  relative cell lysis (%): 23.4%
[1]; [8]
  relative cell lysis (%): 63.8%
[1]; [9]
  relative cell lysis (%): 3.4%
[1]; [10]
  relative cell lysis (%): 0.2%
[1]; [11]
  relative cell lysis (%): 5.7%

## ALDLSHFLK (Human immunodeficiency virus type 1) [Nef 84-9-2L]
[3]; HIV-1 subtype B infected patients carrying HLA-A11
  patients from whom the specific CTL could be induced: three of five
[3]; [24]
  relative cell lysis (%): 68.3%
[3]; [25]
  relative cell lysis (%): 6.3%
[3]; [26]
  relative cell lysis (%): 5.5%
[3]; [27]
  relative cell lysis (%): 16.4%
[3]; [28]
  relative cell lysis (%): 50.4%

## QIYAGIKVK [SF2-Pol424-9]
[4]
  killing of vaccinia-infected target cells by peptide-specific CTL clones (endogenous processing and presentation by HLA-A*1101): contain HLA-A*1101 restricted HIV-1 specific CTL epitopes
[2]; [12]
  relative cell lysis (%): −1.7%
[2]; [13]
  relative cell lysis (%): −3.7%
[2]; [14]
  relative cell lysis (%): 11.7%
[2]; [15]
  relative cell lysis (%): 27.4** %
[2]; [16]
  relative cell lysis (%): 3.1%
[2]; [17]
  relative cell lysis (%): −0.2%
[2]; [18]
  relative cell lysis (%): 2.0%
[2]; [19]
  relative cell lysis (%): 2.3%
[2]; [20]
  relative cell lysis (%): −3.3%
[2]; [21]
  relative cell lysis (%): 7.0%
[2]; [22]
  relative cell lysis (%): −0.2%
[2]; [23]
  relative cell lysis (%): 4.9%
[2]
  patients in whom peptide-specific CTL activity was induced: one of six patients

## AVDLSHFLK (Human immunodeficiency virus type 1) [Nef 84-9, reference compound]
[3]; [24]
  relative cell lysis (%): 25.3* %
[3]; [25]
  relative cell lysis (%): 68.6%
[3]; [26]
  relative cell lysis (%): 6.6%
[3]; [27]
  relative cell lysis (%): 5.8%
[3]; [28]
  relative cell lysis (%): 16.5%

## IYQEPFKNLK [Pol496-505]
[2]; [12]
  relative cell lysis (%): −2.8%
[2]; [13]
  relative cell lysis (%): 4.9%
[2]; [14]
  relative cell lysis (%): 4.6%
[2]; [15]
  relative cell lysis (%): 8.00%
[2]; [16]
  relative cell lysis (%): −2.9%
[2]; [17]
  relative cell lysis (%): −0.6%
[2]; [18]
  relative cell lysis (%): 3.0%
[2]; [19]
  relative cell lysis (%): 12.9%
[2]; [20]
  relative cell lysis (%): 3.2%
[2]; [21]
  relative cell lysis (%): 5.1%
[2]; [22]
  relative cell lysis (%): 2.6%
[2]; [23]
  relative cell lysis (%): 2.5%
[2]
  patients in whom peptide-specific CTL activity was induced: one of six patients

## SVITQACPK [SF2-Env202-9]
[4]
  killing of vaccinia-infected target cells by peptide-specific CTL clones (endogenous processing and presentation by HLA-A*1101): contain HLA-A*1101 restricted HIV-1 specific CTL epitopes

## QIIEKLIEK (Human immunodeficiency virus type 1) [Pol 675-9-5K8E]
[1]
  patients from whom the specific CTL could be induced: two of six
[1]; [5]
  relative cell lysis (%): −4.1%
[1]; [6]
  relative cell lysis (%): 21.7%
[1]; [7]
  relative cell lysis (%): 10.3%
[1]; [8]
  relative cell lysis (%): 4.5%
[1]; [9]
  relative cell lysis (%): 5.6%
[1]; [10]
  relative cell lysis (%): −5.6%

## DPNPQEVVL (Human immunodeficiency virus type 1) [Env77-85]
[2]; [12]
  relative cell lysis (%): −3.6%
[2]; [13]
  relative cell lysis (%): 1.7%
[2]; [14]
  relative cell lysis (%): 1.5%
[2]; [15]
  relative cell lysis (%): 2.5%
[2]; [16]
  relative cell lysis (%): −0.1%
[2]; [17]
  relative cell lysis (%): 0.2%
[2]; [18]
  relative cell lysis (%): 0.0%
[2]; [19]
  relative cell lysis (%): 0.5%
[2]; [20]
  relative cell lysis (%): −2.8%
[2]; [21]
  relative cell lysis (%): −0.3%
[2]; [22]
  relative cell lysis (%): −0.4%
[2]; [23]
  relative cell lysis (%): −1.1%
